US4363922A, “Esters of antibiotic nodusmicin” (priority 1981, dated 1982)
Values after ≈ are worked out from the molar mass of the structure shown.

tested on: S.aureus UC-570; assay: Minimum Inhibitory Concentration, microplate broth-dilution, S. aureus UC-570; conditions: BHI broth; sensitive strain

Which “MIC S.aureus UC-570” value does the source give for 9-O--3-Furoyl- [U-61,461] here?
The value was 0.25 µg/mL.

same assay, conditions: Staphylococcus aureus, UC570, read-out: MIC S.aureus UC-570

How did the MIC turn out when COC1CC2C=CC3C4OC2(C(C)=CC(C)C(C(C)O)OC1=O)C3C(O)C(C)C4OC(=O)c1ccco1 (stereo not drawn) [U-60,898, 9-O--Furoyl-] was run?
Its MIC is 7.8 µg/mL (≈ 15.1 µM).

For COC1CC2C=CC3C4OC2(C(C)=CC(C)C(C(C)O)OC1=O)C3C(OC(=O)c1ccco1)C(C)C4O (stereo not drawn) [U-60,905, 11-O--Furoyl-], which MIC is on record?
Its MIC is 500 µg/mL (≈ 968 µM).

With COC1CC2C=CC3C4OC2(C(C)=CC(C)C(C(C)O)OC1=O)C3C(O)C(C)C4OC(=O)c1cccnc1 (stereo not drawn) [U-60,906, 9-O--Nicotinoyl-] as the molecule, how does the MIC read?
The MIC was 250 µg/mL (≈ 474 µM).

How did the MIC turn out when COC1CC2C=CC3C4OC2(C(C)=CC(C)C(C(C)O)OC1=O)C3C(O)C(C)C4OC(=O)c1ccccn1 (stereo not drawn) [U-60,909, 9-O--Picolinoyl-] was run?
The MIC was greater than 250 µg/mL.

tested on: S.aureus UC-746; assay: Minimum Inhibitory Concentration, microplate broth-dilution, S. aureus UC-746; conditions: BHI broth; strain resistant to tetracycline

How did the “MIC S.aureus UC-746” value turn out when 9-O--3-Furoyl- [U-61,461] was run?
Its value is 0.50 µg/mL.

same assay, conditions: Staphylococcus aureus, UC746, read-out: MIC S.aureus UC-746

With COC1CC2C=CC3C4OC2(C(C)=CC(C)C(C(C)O)OC1=O)C3C(O)C(C)C4OC(=O)c1ccco1 (stereo not drawn) [U-60,898, 9-O--Furoyl-] as the molecule, how does the MIC read?
Its MIC is 7.8 µg/mL (≈ 15.1 µM).

For COC1CC2C=CC3C4OC2(C(C)=CC(C)C(C(C)O)OC1=O)C3C(OC(=O)c1ccco1)C(C)C4O (stereo not drawn) [U-60,905, 11-O--Furoyl-], which MIC is on record?
Its MIC is 500 µg/mL (≈ 968 µM).

With COC1CC2C=CC3C4OC2(C(C)=CC(C)C(C(C)O)OC1=O)C3C(O)C(C)C4OC(=O)c1cccnc1 (stereo not drawn) [U-60,906, 9-O--Nicotinoyl-] as the molecule, how does the MIC read?
Its MIC is 250 µg/mL (≈ 474 µM).

With COC1CC2C=CC3C4OC2(C(C)=CC(C)C(C(C)O)OC1=O)C3C(O)C(C)C4OC(=O)c1ccccn1 (stereo not drawn) [U-60,909, 9-O--Picolinoyl-] as the molecule, how does the MIC read?
The MIC was greater than 250 µg/mL.

tested on: S.aureus UC-76; assay: Minimum Inhibitory Concentration, microplate broth-dilution, S. aureus UC-76; conditions: BHI broth; sensitive strain

Which “MIC S.aureus UC-76” value does the source give for 9-O--3-Furoyl- [U-61,461] here?
Its value is 0.50 µg/mL.

same assay, conditions: Staphylococcus aureus, UC76, read-out: MIC S.aureus UC-76

How did the MIC turn out when COC1CC2C=CC3C4OC2(C(C)=CC(C)C(C(C)O)OC1=O)C3C(O)C(C)C4OC(=O)c1ccco1 (stereo not drawn) [U-60,898, 9-O--Furoyl-] was run?
Its MIC is 7.8 µg/mL (≈ 15.1 µM).

For COC1CC2C=CC3C4OC2(C(C)=CC(C)C(C(C)O)OC1=O)C3C(OC(=O)c1ccco1)C(C)C4O (stereo not drawn) [U-60,905, 11-O--Furoyl-], which MIC is on record?
Its MIC is 500 µg/mL (≈ 968 µM).

COC1CC2C=CC3C4OC2(C(C)=CC(C)C(C(C)O)OC1=O)C3C(O)C(C)C4OC(=O)c1cccnc1 (stereo not drawn) [U-60,906, 9-O--Nicotinoyl-] was tested. Which MIC did it give?
The MIC was 250 µg/mL (≈ 474 µM).

With COC1CC2C=CC3C4OC2(C(C)=CC(C)C(C(C)O)OC1=O)C3C(O)C(C)C4OC(=O)c1ccccn1 (stereo not drawn) [U-60,909, 9-O--Picolinoyl-] as the molecule, how does the MIC read?
The MIC was greater than 250 µg/mL.

tested on: S.aureus UC 80; assay: Dipped disc agar diffusion assay, S. aureus; conditions: 1 mg./ml.; 12.7 mm paper disc; 16 hours

With 9-O--3-Furoyl- [U-61,461] as the molecule, how does the “Agar Diffusion 1 mg./ml. S.aureus UC 80 (inhibition zone)” value read?
The value was 35.

same assay, conditions: Staphylococcus aureus, UC80, 16 h, read-out: Agar Diffusion 1 mg./ml. S.aureus UC 80 (inhibition zone)

For COC1CC2C=CC3C4OC2(C(C)=CC(C)C(C(C)O)OC1=O)C3C(O)C(C)C4OC(=O)c1ccco1 (stereo not drawn) [U-60,898, 9-O--Furoyl-], which zone of inhibition at 1000 µg/mL is on record?
Its zone of inhibition at 1000 µg/mL is 30 mm.

tested on: S.pyrogenes UC-152; assay: Minimum Inhibitory Concentration, microplate broth-dilution, S. pyrogenes UC-152; conditions: BHI broth

9-O--3-Furoyl- [U-61,461] was tested. Which “MIC S.pyrogenes UC-152” value did it give?
The value was 2.50 µg/mL.

same assay, conditions: read-out: MIC S.pyrogenes UC-152

With COC1CC2C=CC3C4OC2(C(C)=CC(C)C(C(C)O)OC1=O)C3C(O)C(C)C4OC(=O)c1ccco1 (stereo not drawn) [U-60,898, 9-O--Furoyl-] as the molecule, how does the MIC read?
Its MIC is greater than 250 µg/mL.

With COC1CC2C=CC3C4OC2(C(C)=CC(C)C(C(C)O)OC1=O)C3C(OC(=O)c1ccco1)C(C)C4O (stereo not drawn) [U-60,905, 11-O--Furoyl-] as the molecule, how does the MIC read?
Its MIC is greater than 500 µg/mL.

For COC1CC2C=CC3C4OC2(C(C)=CC(C)C(C(C)O)OC1=O)C3C(O)C(C)C4OC(=O)c1cccnc1 (stereo not drawn) [U-60,906, 9-O--Nicotinoyl-], which MIC is on record?
The MIC was 2500 µg/mL (≈ 4740 µM).

For COC1CC2C=CC3C4OC2(C(C)=CC(C)C(C(C)O)OC1=O)C3C(O)C(C)C4OC(=O)c1ccccn1 (stereo not drawn) [U-60,909, 9-O--Picolinoyl-], which MIC is on record?
The MIC was greater than 250 µg/mL.

tested on: S.lutea UC-130; assay: Dipped disc agar diffusion assay, S. lutea; conditions: 1 mg./ml.; 12.7 mm paper disc; 16 hours

For 9-O--3-Furoyl- [U-61,461], which “Agar Diffusion 1 mg./ml. S.lutea UC-130 (inhibition zone)” value is on record?
Its value is 41.

same assay, conditions: Micrococcus luteus, UC130, 16 h, read-out: Agar Diffusion 1 mg./ml. S.lutea UC-130 (inhibition zone)

For COC1CC2C=CC3C4OC2(C(C)=CC(C)C(C(C)O)OC1=O)C3C(O)C(C)C4OC(=O)c1ccco1 (stereo not drawn) [U-60,898, 9-O--Furoyl-], which zone of inhibition at 1000 µg/mL is on record?
The zone of inhibition at 1000 µg/mL was 40 mm.

How did the zone of inhibition at 1000 µg/mL turn out when COC1CC2C=CC3C4OC2(C(C)=CC(C)C(C(C)O)OC1=O)C3C(OC(=O)c1ccco1)C(C)C4O (stereo not drawn) [U-60,905, 11-O--Furoyl-] was run?
Its zone of inhibition at 1000 µg/mL is 17 mm.

How did the zone of inhibition at 1000 µg/mL turn out when COC1CC2C=CC3C4OC2(C(C)=CC(C)C(C(C)O)OC1=O)C3C(O)C(C)C4OC(=O)c1cccnc1 (stereo not drawn) [U-60,906, 9-O--Nicotinoyl-] was run?
Its zone of inhibition at 1000 µg/mL is 32 mm.

For COC1CC2C=CC3C4OC2(C(C)=CC(C)C(C(C)O)OC1=O)C3C(O)C(C)C4OC(=O)c1ccccn1 (stereo not drawn) [U-60,909, 9-O--Picolinoyl-], which zone of inhibition at 1000 µg/mL is on record?
The zone of inhibition at 1000 µg/mL was 31 mm.
